pEC50, pIC50: −log10 of the molar value.
Assays:
PC-3 cells = assay: Cell Proliferation Assay (Cell Titer Glo), PC-3 cell line; assay type: cell-based; conditions: Homo sapiens, PC-3, Cell Proliferation Assay, PC3; read-out: CPEC50 PC3
Outline: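 PC-3 cells, 1000 cells/well, left to adhere 3-5 h, then exposed for 3 days at 37° C to compounds as 1:3 serial dilutions from 500× DMSO stocks diluted in growth medium. Medium then replaced with fresh medium and viability read by Cell Titer Glo luminescence.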

PDK1 kinase = molecular target: T1, PDK1 kinase (Homo sapiens, UniProt O15530); assay: PDK1 Kinase Alpha Screen Assay; assay type: biochemical; conditions: PDK1 Kinase Alpha Screen Assay; read-out: PDK1 IC50
T1 sequence (O15530 1-556): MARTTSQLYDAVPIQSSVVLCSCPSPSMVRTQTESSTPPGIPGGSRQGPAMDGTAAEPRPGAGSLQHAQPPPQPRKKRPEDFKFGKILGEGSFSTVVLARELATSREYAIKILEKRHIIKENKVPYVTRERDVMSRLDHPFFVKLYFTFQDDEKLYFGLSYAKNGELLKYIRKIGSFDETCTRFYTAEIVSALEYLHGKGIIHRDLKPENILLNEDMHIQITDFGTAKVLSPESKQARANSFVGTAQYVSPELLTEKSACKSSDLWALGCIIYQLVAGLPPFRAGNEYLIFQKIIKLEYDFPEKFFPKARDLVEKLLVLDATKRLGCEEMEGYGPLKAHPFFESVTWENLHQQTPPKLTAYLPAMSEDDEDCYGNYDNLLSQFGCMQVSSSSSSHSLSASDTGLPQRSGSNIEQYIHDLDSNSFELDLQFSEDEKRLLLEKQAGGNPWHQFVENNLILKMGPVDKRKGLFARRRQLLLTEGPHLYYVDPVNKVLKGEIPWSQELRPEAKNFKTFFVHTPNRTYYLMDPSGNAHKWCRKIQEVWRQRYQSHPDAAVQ
Outline: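 Test compounds were incubated with PDK1 kinase, 10 uM ATP and 50 nM biotinylated peptide substrate for 3-18 hours at pH 7.5 with 2.5% DMSO. Peptide phosphorylation was then detected by AlphaScreen proximity luminescence using a phospho-(Ser/Thr) PKA substrate antibody.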

| pEC50 (PC-3 cells) | pIC50 (PDK1 kinase) | SMILES |
| --- | --- | --- |
| > 5.30 | > 5.30 | N#Cc1ccc(Nc2ncc3cccc(-c4ccc(NCCN5CCCC5)nc4)c3n2)cc1 [Compound 427, 4-(8-(6-(2-(pyrrolidin-1-yl)ethylamino)pyridin-3-yl)quinazolin-2-ylamino)benzonitrile] |
| > 5.30 | > 5.30 | Fc1cc(F)cc(Nc2ncc3cccc(-c4ccc(NCCN5CCCC5)nc4)c3n2)c1 [Compound 428, N-(3,5-difluorophenyl)-8-(6-(2-(pyrrolidin-1-yl)ethylamino)pyridin-3-yl)quinazolin-2-amine] |
| 5.00 to 5.30 | > 5.30 | NS(=O)(=O)c1ccc(Nc2ncc3c(Br)ccc(OC4CCNCC4)c3n2)cc1 [Compound 429, 4-(5-bromo-8-(piperidin-4-yloxy)quinazolin-2-ylamino)benzenesulfonamide] |
| > 5.30 | > 5.30 | O=S(=O)(c1ccc(Nc2ncc3c(Br)ccc(OC4CCNCC4)c3n2)cc1)N1CCOCC1 [Compound 430, 5-bromo-N-(4-(morpholinosulfonyl)phenyl)-8-(piperidin-4-yloxy)quinazolin-2-amine] |
| > 5.30 | > 5.30 | Fc1cc(Nc2ncc3cccc(-c4ccc(NCCN5CCCC5)nc4)c3n2)ccc1N1CCOCC1 [Compound 431, N-(3-fluoro-4-morpholinophenyl)-8-(6-(2-(pyrrolidin-1-yl)ethylamino)pyridine-3-yl)quinazolin-2-amine] |
| > 5.30 | > 5.30 | CN1CCN(c2ccc(-c3cccc4cnc(Nc5ccc(N6CCOCC6)c(F)c5)nc34)cn2)CC1 [Compound 432, N-(3-fluoro-4-morpholinophenyl)-8-(6-(4-methylpiperazin-1-yl)pyridin-3-yl)quinazolin-2-amine] |
| > 5.30 | > 5.30 | Fc1cccc(Nc2ncc3c(Br)ccc(OC4CCNCC4)c3n2)c1 [Compound 433, 5-bromo-N-(3-fluorophenyl)-8-(piperidin-4-yloxy)quinazolin-2-amine] |
| > 5.30 | > 5.30 | Fc1ccc(Nc2ncc3c(Br)ccc(OC4CCNCC4)c3n2)cc1 [Compound 434, 5-bromo-N-(4-fluorophenyl)-8-(piperidin-4-yloxy)quinazolin-2-amine] |
| 5.00 to 5.30 | > 5.30 | Brc1ccc(OC2CCNCC2)c2nc(Nc3ccc(N4CCOCC4)cc3)ncc12 [Compound 435, 5-bromo-N-(4-morpholinophenyl)-8-(piperidin-4-yloxy)quinazolin-2-amine] |
| > 5.30 | > 5.30 | CN1CCN(c2ccc(-c3cccc4cnc(Nc5ccc(C(F)(F)F)nc5)nc34)cn2)CC1 [Compound 436, 8-(6-(4-methylpiperazin-1-yl)pyridin-3-yl)-N-(6-(trifluoromethyl)pyridine-3-yl)quinazolin-2-amine] |
| > 5.30 | 5.00 to 5.30 | O=S(=O)(c1cccc(Nc2ncc3c(Br)ccc(OC4CCNCC4)c3n2)c1)N1CCOCC1 [Compound 437, 5-bromo-N-(3-(morpholinosulfonyl)phenyl)-8-(piperidin-4-yloxy)quinazolin-2-amine] |
| > 5.30 | > 5.30 | O=C(c1ccc(Nc2ncc3c(Br)ccc(OC4CCNCC4)c3n2)cc1)N1CCOCC1 [Compound 438, (4-(5-bromo-8-(piperidin-4-yloxy)quinazolin-2-ylamino)phenyl)(morpholino)methanone] |
| > 5.30 | > 5.30 | CC(C)NC(=O)c1ccc(Nc2ncc3cccc(OC4CCNCC4)c3n2)cc1F [Compound 439, 2-fluoro-N-isopropyl-4-(8-(piperidin-4-yloxy)quinazolin-2-ylamino)benzamide] |
| > 5.30 | > 5.30 | O=C(NC1CCOCC1)c1ccc(Nc2ncc3cccc(OC4CCNCC4)c3n2)cc1F [Compound 440, 2-fluoro-4-(8-(piperidin-4-yloxy)quinazolin-2-ylamino)-N-(tetrahydro-2H-pyran-4-yl)benzamide] |
| 5.00 to 5.30 | > 5.30 | O=C(O)c1ccc(Nc2ncc3cccc(OC4CCNCC4)c3n2)cc1F [Compound 441, 2-fluoro-4-(8-(piperidin-4-yloxy)quinazolin-2-ylamino)benzoic acid] |
| > 5.30 | > 5.30 | CC(=O)Nc1cccc(Nc2ncc3cccc(-c4ccc(N5CCN(C)CC5)nc4)c3n2)c1 [Compound 442, N-(3-(8-(6-(4-methylpiperazin-1-yl)pyridin-3-yl)quinazolin-2-ylamino)phenyl)acetamide] |
| > 5.30 | > 5.30 | CN1CCN(c2ccc(-c3cccc4cnc(Nc5cccc(-c6cnco6)c5)nc34)cn2)CC1 [Compound 443, 8-(6-(4-methylpiperazin-1-yl)pyridin-3-yl)-N-(3-(oxazol-5-yl)phenyl)quinazolin-2-amine] |

| pEC50 (PC-3 cells) | pIC50 (PDK1 kinase) | SMILES |
| --- | --- | --- |
| > 5.30 | > 5.30 | O=C(NC1CC1)c1ccc(Nc2ncc3cccc(OC4CCNCC4)c3n2)cc1F [Compound 444, N-cyclopropyl-2-fluoro-4-(8-(piperidin-4-yloxy)quinazolin-2-ylamino)benzamide] |
| > 5.30 | > 5.30 | COCCNC(=O)c1ccc(Nc2ncc3cccc(OC4CCNCC4)c3n2)cc1F [Compound 445, 2-fluoro-N-(2-methoxyethyl)-4-(8-(piperidin-4-yloxy)quinazolin-2-ylamino)benzamide] |
| > 5.30 | > 5.30 | CN(C)C(=O)c1ccc(Nc2ncc3cccc(OC4CCNCC4)c3n2)cc1F [Compound 446, 2-fluoro-N,N-dimethyl-4-(8-(piperidin-4-yloxy)quinazolin-2-ylamino)benzamide] |
| > 5.30 | > 5.30 | O=C(c1ccc(Nc2ncc3cccc(OC4CCNCC4)c3n2)cc1F)N1CCOCC1 [Compound 447, (2-fluoro-4-(8-(piperidin-4-yloxy)quinazolin-2-ylamino)phenyl)(morpholino)methanone] |
| 5.00 to 5.30 | > 5.30 | NC(=O)c1cc(Nc2ncc3cccc(OC4CCNCC4)c3n2)ccc1N1CCOCC1 [Compound 448, 2-morpholino-5-(8-(piperidin-4-yloxy)quinazolin-2-ylamino)benzamide] |
| 5.00 to 5.30 | > 5.30 | O=C(O)c1cc(Nc2ncc3cccc(OC4CCNCC4)c3n2)ccc1N1CCOCC1 [Compound 449, 2-morpholino-5-(8-(piperidin-4-yloxy)quinazolin-2-ylamino)benzoic acid] |
| 5.00 to 5.30 | > 5.30 | O=C(O)c1cc(Nc2ncc3cccc(OC4CCNCC4)c3n2)cc(C(F)(F)F)c1 [Compound 450] |
| > 5.30 | > 5.30 | CCOC(=O)c1cc(F)cc(Nc2ncc3cccc(OC4CCNCC4)c3n2)c1 [Compound 451, ethyl 3-fluoro-5-(8-(piperidin-4-yloxy)quinazolin-2-ylamino)benzoate] |
| > 5.30 | > 5.30 | FC(F)(F)c1cc(Br)cc(Nc2ncc3cccc(OC4CCNCC4)c3n2)c1 [Compound 452, N-(3-bromo-5-(trifluoromethyl)phenyl)-8-(piperidin-4-yloxy)quinazolin-2-amine] |
| > 5.30 | > 5.30 | CC(C)NC(=O)c1cc(Nc2ncc3cccc(OC4CCNCC4)c3n2)cc(C(F)(F)F)c1 [Compound 453, N-isopropyl-3-(8-(piperidin-4-yloxy)quinazolin-2-ylamino)-5-(trifluoromethyl)benzamide] |
| 5.00 to 5.30 | > 5.30 | O=C(c1cc(Nc2ncc3cccc(OC4CCNCC4)c3n2)cc(C(F)(F)F)c1)N1CCOCC1 [Compound 454, morpholino(3-(8-(piperidin-4-yloxy)quinazolin-2-ylamino)-5-(trifluoromethyl)phenyl)methanone] |
| 5.00 to 5.30 | > 5.30 | CN(C)C(=O)c1cc(Nc2ncc3cccc(OC4CCNCC4)c3n2)ccc1N1CCOCC1 [Compound 455, N,N-dimethyl-2-morpholino-5-(8-(piperidin-4-yloxy)quinazolin-2-ylamino)benzamide] |
| > 5.30 | > 5.30 | O=C(NC1CC1)c1cc(Nc2ncc3cccc(OC4CCNCC4)c3n2)ccc1N1CCOCC1 [Compound 456, N-cyclopropyl-2-morpholino-5-(8-(piperidin-4-yloxy)quinazolin-2-ylamino)benzamide] |
| > 5.30 | > 5.30 | Fc1cc(Nc2ncc3cccc(OC4CCNCC4)c3n2)ccc1N1CCOCC1 [Compound 457, N-(3-fluoro-4-morpholinophenyl)-8-(piperidin-4-yloxy)quinazolin-2-amine] |
| > 5.30 | > 5.30 | c1cc(OC2CCNCC2)c2nc(Nc3ccc(-c4cnco4)cc3)ncc2c1 [Compound 458, N-(4-(oxazol-5-yl)phenyl)-8-(piperidin-4-yloxy)quinazolin-2-amine] |
| > 5.30 | > 5.30 | CN1CCN(c2ccc(-c3cccc4cnc(Nc5ccc(N6CCOCC6)c(F)c5)nc34)cc2)CC1 [Compound 459, N-(3-fluoro-4-morpholinophenyl)-8-(4-(4-methylpiperazin-1-yl)phenyl)quinazolin-2-amine] |

From patent US7932262B2 (Novartis AG, priority 2006, dated 2011)
